# Test results from ChEMBL document CHEMBL3102714 (J Med Chem, 2013).
# Activity calls are given as the source filed them. No cut-off for these calls is given here. Where a SMILES comes first, the peptide text is derived from it.
# How the values were obtained:
# [1] = biological target: T1, Neuronal acetylcholine receptor subunit alpha-7 (Homo sapiens, UniProt P36544); test: Inhibition of human alpha7 nAChR
# [2] = biological target: T2, Neuronal acetylcholine receptor; alpha9/alpha10 (Homo sapiens, UniProt Q9GZZ6+Q9UGM1); test: Inhibition of human alpha9alpha10 nAChR; type: protein-complex assay
# T2 sequence (Q9UGM1 whole entry): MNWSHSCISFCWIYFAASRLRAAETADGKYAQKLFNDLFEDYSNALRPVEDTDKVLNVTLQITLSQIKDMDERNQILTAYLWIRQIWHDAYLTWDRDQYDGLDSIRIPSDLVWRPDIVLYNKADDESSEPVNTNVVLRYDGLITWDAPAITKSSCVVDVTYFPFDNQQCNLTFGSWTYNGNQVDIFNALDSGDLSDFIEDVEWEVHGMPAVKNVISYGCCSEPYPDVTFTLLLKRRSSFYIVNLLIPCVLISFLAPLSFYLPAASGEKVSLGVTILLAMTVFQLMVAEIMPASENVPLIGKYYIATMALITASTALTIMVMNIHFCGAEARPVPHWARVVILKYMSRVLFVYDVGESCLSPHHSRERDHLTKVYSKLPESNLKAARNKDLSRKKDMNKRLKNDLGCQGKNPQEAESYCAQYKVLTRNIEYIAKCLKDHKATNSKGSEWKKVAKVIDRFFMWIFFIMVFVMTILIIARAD
# T2 sequence (Q9GZZ6 whole entry): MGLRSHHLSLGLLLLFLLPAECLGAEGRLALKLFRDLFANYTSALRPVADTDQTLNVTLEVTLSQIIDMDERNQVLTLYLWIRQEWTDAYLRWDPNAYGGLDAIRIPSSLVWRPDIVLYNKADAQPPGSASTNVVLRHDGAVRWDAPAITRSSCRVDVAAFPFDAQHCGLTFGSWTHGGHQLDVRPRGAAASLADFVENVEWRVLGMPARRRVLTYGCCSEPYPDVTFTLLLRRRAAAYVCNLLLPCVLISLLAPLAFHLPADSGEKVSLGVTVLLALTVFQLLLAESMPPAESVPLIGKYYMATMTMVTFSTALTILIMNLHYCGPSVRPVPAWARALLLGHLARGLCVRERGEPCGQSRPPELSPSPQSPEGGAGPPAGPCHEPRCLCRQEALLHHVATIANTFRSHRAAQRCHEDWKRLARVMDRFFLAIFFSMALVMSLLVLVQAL
# [3] = biological target: T3, Neuronal acetylcholine receptor; alpha3/beta4 (Homo sapiens, UniProt P30926+P32297); test: Inhibition of human alpha3beta4 nAChR; type: protein-complex assay
# T3 sequence (P30926 whole entry): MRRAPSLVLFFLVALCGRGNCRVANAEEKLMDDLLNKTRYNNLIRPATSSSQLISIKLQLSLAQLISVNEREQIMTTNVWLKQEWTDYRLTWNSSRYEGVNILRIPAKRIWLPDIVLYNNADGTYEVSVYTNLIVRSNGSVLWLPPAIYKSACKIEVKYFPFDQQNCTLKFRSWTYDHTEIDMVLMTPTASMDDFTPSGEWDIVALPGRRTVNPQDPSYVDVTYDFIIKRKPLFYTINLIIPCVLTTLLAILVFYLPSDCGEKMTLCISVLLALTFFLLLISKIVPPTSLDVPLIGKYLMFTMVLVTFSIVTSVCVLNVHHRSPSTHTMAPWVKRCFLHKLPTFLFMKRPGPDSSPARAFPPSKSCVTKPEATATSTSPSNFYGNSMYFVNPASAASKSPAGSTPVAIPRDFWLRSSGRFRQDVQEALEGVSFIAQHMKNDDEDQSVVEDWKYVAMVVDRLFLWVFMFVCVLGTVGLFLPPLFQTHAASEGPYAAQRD
# T3 sequence (P32297 whole entry): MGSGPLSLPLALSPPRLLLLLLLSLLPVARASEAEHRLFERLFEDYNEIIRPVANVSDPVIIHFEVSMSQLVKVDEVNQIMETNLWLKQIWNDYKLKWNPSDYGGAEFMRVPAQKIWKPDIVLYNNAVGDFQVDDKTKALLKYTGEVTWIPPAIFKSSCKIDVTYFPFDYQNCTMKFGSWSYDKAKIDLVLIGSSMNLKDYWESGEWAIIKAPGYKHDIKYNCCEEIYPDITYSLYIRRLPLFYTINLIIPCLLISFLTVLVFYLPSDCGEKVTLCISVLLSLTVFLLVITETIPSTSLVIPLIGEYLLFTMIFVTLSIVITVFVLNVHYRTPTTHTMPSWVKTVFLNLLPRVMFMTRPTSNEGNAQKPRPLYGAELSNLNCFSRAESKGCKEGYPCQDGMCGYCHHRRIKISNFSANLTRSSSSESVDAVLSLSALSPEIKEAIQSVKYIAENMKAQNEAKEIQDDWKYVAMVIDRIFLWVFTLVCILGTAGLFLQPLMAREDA
# [4] = biological target: T4, Neuronal acetylcholine receptor; alpha3/beta2 (Homo sapiens, UniProt P17787+P32297); test: Inhibition of human alpha3beta2 nAChR; type: protein-complex assay
# [5] = biological target: T5, Nicotinic acetylcholine receptor alpha6/alpha3/beta2/beta3 (Rattus norvegicus, UniProt P04757+P12390+P12391+P43143); test: Inhibition of rat alpha6/alpha3beta2beta3 nAChR expressed in Xenopus laevis oocytes assessed as inhibition of ACh-induced current by voltage clamp electrophysiology method; type: cell-based
# T5 sequence (P04757 whole entry): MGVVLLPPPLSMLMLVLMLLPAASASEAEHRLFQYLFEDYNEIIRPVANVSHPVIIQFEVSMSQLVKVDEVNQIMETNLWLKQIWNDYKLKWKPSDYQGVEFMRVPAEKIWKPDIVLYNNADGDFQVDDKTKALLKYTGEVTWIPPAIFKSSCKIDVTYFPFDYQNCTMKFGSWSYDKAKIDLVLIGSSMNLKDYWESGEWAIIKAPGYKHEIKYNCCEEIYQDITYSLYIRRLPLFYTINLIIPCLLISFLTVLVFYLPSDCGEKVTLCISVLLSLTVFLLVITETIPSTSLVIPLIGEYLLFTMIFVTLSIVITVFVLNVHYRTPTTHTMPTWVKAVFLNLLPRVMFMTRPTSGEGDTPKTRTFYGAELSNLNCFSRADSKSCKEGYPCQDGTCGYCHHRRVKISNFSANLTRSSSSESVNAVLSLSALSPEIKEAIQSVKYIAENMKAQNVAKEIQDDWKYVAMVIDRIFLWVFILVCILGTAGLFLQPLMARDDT
# T5 sequence (P12390 whole entry): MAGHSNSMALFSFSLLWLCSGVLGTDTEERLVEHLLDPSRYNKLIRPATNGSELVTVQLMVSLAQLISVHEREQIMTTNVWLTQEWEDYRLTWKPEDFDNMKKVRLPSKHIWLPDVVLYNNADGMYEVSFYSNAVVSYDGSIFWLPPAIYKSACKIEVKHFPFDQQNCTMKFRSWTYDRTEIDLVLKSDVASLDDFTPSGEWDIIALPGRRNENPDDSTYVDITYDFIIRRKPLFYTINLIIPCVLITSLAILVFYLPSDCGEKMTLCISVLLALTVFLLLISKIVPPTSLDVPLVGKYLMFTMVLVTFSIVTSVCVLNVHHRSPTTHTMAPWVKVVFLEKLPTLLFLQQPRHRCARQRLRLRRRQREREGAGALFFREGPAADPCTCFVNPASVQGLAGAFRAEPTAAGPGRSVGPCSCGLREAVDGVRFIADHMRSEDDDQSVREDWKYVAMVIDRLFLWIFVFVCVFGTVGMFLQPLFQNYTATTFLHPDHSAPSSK
# T5 sequence (P12391 whole entry): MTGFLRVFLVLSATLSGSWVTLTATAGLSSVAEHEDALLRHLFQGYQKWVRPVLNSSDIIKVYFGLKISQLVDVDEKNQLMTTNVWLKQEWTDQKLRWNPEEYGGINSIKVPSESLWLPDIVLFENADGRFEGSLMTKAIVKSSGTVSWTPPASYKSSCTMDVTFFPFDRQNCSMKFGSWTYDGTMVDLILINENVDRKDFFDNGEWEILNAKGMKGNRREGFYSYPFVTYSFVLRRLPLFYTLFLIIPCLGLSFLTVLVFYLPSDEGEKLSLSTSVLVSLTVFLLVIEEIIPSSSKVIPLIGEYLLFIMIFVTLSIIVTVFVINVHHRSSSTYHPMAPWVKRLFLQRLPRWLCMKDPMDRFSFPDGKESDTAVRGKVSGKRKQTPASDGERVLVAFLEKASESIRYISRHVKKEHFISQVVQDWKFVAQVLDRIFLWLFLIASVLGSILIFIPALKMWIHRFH
# T5 sequence (P43143 whole entry): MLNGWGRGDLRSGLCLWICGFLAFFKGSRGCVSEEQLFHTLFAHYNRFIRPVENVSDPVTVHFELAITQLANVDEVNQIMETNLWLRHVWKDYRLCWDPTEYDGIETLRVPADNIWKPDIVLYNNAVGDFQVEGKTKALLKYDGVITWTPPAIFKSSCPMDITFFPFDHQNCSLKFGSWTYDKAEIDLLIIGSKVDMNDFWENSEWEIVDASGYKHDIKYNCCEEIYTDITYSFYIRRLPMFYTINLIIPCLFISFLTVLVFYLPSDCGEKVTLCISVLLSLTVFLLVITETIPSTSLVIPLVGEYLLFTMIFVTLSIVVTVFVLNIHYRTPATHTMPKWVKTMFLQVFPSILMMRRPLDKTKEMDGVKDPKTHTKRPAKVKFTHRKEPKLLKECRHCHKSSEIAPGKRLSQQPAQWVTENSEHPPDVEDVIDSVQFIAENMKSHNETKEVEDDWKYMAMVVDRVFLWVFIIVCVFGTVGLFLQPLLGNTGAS
# [6] = biological target: Neuronal acetylcholine receptor subunit alpha-7 (Rattus norvegicus) (UniProt Q05941); test: Inhibition of rat alpha7 nAChR expressed in Xenopus laevis assessed as inhibition of ACh-induced current at 10 uM after 2 to 4 days by voltage clamp electrophysiology method
# [7] = biological target: Neuronal acetylcholine receptor; alpha3/beta2 (Rattus norvegicus) (UniProt P04757+P12390); test: Inhibition of rat alpha3beta2 nAChR expressed in Xenopus laevis oocytes assessed as inhibition of ACh-induced current at 10 uM after 2 to 4 days by voltage clamp electrophysiology method; type: cell-based
# [8] = biological target: Neuronal acetylcholine receptor; alpha4/beta4 (Rattus norvegicus) (UniProt P09483+P12392); test: Inhibition of rat alpha4beta4 nAChR expressed in Xenopus laevis oocytes assessed as inhibition of ACh-induced current at 10 uM after 2 to 4 days by voltage clamp electrophysiology method; type: cell-based
# [9] = biological target: Nicotinic acetylcholine receptor alpha9/alpha10 (Rattus norvegicus) (UniProt P43144+Q9JLB5); test: Inhibition of rat alpha9alpha10 nAChR expressed in Xenopus laevis oocytes assessed as inhibition of ACh-induced current at 10 uM after 2 to 4 days by voltage clamp electrophysiology method; type: cell-based
# [10] = biological target: Neuronal acetylcholine receptor; alpha3/beta4 (Rattus norvegicus) (UniProt P04757+P12392); test: Inhibition of rat alpha3beta4 nAChR expressed in Xenopus laevis oocytes assessed as inhibition of ACh-induced current at 1 uM after 2 to 4 days by voltage clamp electrophysiology method; type: cell-based
# [11] = biological target: Nicotinic acetylcholine receptor alpha6/alpha3/beta4 (Rattus norvegicus, UniProt P04757+P12392+P43143); test: Inhibition of rat alpha6/alpha3beta4 nAChR expressed in Xenopus oocytes assessed as inhibition of ACh-induced current by voltage clamp electrophysiology method; type: cell-based
# [12] = biological target: Neuronal acetylcholine receptor subunit alpha-7 (Rattus norvegicus, UniProt Q05941); test: Inhibition of rat alpha7 nAChR expressed in Xenopus oocytes assessed as inhibition of ACh-induced current by voltage clamp electrophysiology method; type: cell-based
# [13] = biological target: Neuronal acetylcholine receptor; alpha3/beta2 (Rattus norvegicus, UniProt P04757+P12390); test: Inhibition of rat alpha3beta2 nAChR expressed in Xenopus oocytes assessed as inhibition of ACh-induced current by voltage clamp electrophysiology method; type: cell-based
# [14] = biological target: T5, Nicotinic acetylcholine receptor alpha6/alpha3/beta2/beta3; test: Inhibition of rat alpha6/alpha3beta2beta3 nAChR expressed in Xenopus oocytes assessed as inhibition of ACh-induced current by voltage clamp electrophysiology method; type: cell-based
# [15] = biological target: Neuronal acetylcholine receptor; alpha2/beta2 (Rattus norvegicus, UniProt P12389+P12390); test: Inhibition of rat alpha2beta2 nAChR expressed in Xenopus oocytes assessed as inhibition of ACh-induced current by voltage clamp electrophysiology method; type: cell-based
# [16] = biological target: Neuronal acetylcholine receptor; alpha4/beta4 (Rattus norvegicus, UniProt P09483+P12392); test: Inhibition of rat alpha4beta4 nAChR expressed in Xenopus oocytes assessed as inhibition of ACh-induced current by voltage clamp electrophysiology method; type: cell-based
# [17] = biological target: Neuronal acetylcholine receptor; alpha2/beta4 (Rattus norvegicus, UniProt P12389+P12392); test: Inhibition of rat alpha2beta4 nAChR expressed in Xenopus oocytes assessed as inhibition of ACh-induced current by voltage clamp electrophysiology method; type: cell-based
# [18] = biological target: T6, Neuronal acetylcholine receptor; alpha3/beta4 (Rattus norvegicus, UniProt P04757+P12392); test: Inhibition of rat alpha3beta4 nAChR expressed in Xenopus oocytes assessed as inhibition of ACh-induced current by voltage clamp electrophysiology method; type: cell-based
# T6 sequence (P04757 whole entry): as the sequence (P04757 whole entry) above
# T6 sequence (P12392 whole entry): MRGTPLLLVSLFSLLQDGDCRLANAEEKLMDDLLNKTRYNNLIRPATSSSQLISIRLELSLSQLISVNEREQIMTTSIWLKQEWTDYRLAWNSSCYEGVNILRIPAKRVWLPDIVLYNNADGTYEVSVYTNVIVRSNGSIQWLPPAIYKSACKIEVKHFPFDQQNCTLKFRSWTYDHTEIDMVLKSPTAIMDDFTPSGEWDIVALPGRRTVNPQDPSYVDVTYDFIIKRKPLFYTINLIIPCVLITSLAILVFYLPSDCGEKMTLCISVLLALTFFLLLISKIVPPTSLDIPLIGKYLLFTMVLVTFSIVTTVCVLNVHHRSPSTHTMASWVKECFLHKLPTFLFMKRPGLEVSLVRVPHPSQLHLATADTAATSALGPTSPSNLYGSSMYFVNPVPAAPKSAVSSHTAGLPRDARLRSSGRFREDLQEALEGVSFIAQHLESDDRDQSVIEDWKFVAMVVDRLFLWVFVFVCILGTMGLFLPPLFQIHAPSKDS
# [19] = biological target: Nicotinic acetylcholine receptor alpha9/alpha10 (Rattus norvegicus, UniProt P43144+Q9JLB5); test: Inhibition of recombinant rat alpha9alpha10 nAChR expressed in Xenopus laevis oocytes assessed as inhibition of ACh-induced current by voltage clamp electrophysiology method; type: cell-based
# [20] = biological target: T6, Neuronal acetylcholine receptor; alpha3/beta4; test: Inhibition of rat alpha3beta4 nAChR expressed in Xenopus laevis oocytes assessed as inhibition of ACh-induced current after 2 to 4 days by voltage clamp electrophysiology method; type: cell-based
# [21] = biological target: T1, Neuronal acetylcholine receptor subunit alpha-7; test: Inhibition of alpha7 (unknown origin) nAChR
# [22] = biological target: T2, Neuronal acetylcholine receptor; alpha9/alpha10; test: Inhibition of alpha9alpha10 (unknown origin) nAChR; type: protein-complex assay
# [23] = biological target: T4, Neuronal acetylcholine receptor; alpha3/beta2; test: Inhibition of alpha3beta2 nAChR (unknown origin) expressed in Xenopus laevis oocytes by two-electrode voltage clamp method; type: cell-based
# [24] = biological target: T3, Neuronal acetylcholine receptor; alpha3/beta4; test: Inhibition of alpha3beta4 nAChR (unknown origin) expressed in Xenopus laevis oocytes by two-electrode voltage clamp method; type: cell-based
# [25] = biological target: T1, Neuronal acetylcholine receptor subunit alpha-7; test: Inhibition of alpha7 nAChR (unknown origin) expressed in Xenopus laevis oocytes by two-electrode voltage clamp method; type: cell-based
# [26] = biological target: Neuronal acetylcholine receptor; alpha9/alpha10 (Homo sapiens) (UniProt Q9UGM1+Q9GZZ6); test: Inhibition of alpha9alpha10 nAChR (unknown origin) expressed in Xenopus laevis oocytes at 1 uM by voltage clamp electrophysiology method; type: cell-based
# [27] = biological target: T1, Neuronal acetylcholine receptor subunit alpha-7; test: Inhibition of alpha7 nAChR (unknown origin) expressed in Xenopus laevis oocytes at 1 uM by two-electrode voltage clamp method; type: cell-based
# [28] = biological target: T4, Neuronal acetylcholine receptor; alpha3/beta2; test: Inhibition of alpha3beta2 nAChR (unknown origin) expressed in Xenopus laevis oocytes at 1uM by two-electrode voltage clamp method; type: cell-based
# [29] = biological target: T3, Neuronal acetylcholine receptor; alpha3/beta4; test: Inhibition of alpha3beta4 nAChR (unknown origin) expressed in Xenopus laevis oocytes at 1uM by two-electrode voltage clamp method; type: cell-based
# T1 sequence (P36544 whole entry): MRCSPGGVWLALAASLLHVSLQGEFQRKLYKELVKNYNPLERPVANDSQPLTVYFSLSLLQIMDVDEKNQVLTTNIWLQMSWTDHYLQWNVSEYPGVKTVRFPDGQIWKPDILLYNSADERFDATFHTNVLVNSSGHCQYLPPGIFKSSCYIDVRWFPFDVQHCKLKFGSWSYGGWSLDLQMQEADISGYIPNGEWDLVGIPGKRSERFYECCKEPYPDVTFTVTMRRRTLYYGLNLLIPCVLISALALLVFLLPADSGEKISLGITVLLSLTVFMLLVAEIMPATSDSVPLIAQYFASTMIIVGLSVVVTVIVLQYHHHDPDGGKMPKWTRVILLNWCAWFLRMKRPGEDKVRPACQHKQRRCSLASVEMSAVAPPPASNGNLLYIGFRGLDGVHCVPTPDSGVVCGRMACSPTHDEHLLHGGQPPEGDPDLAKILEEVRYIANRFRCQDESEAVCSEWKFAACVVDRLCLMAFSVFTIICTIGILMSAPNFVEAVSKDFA
structure (smiles),measurement,setting,value
C[C@@H]1NC(=O)[C@@H]2CSSC[C@H](NC(=O)CN)C(=O)N[C@@H](CSSC[C@@H](C(N)=O)NC(=O)[C@H](CCCNC(=N)N)NC(=O)[C@H](Cc3c[nH]c4ccccc34)NC1=O)C(=O)N[C@@H](CO)C(=O)N[C@@H](CC(=O)O)C(=O)N1CCC[C@H]1C(=O)N[C@@H](CCCNC(=N)N)C(=O)N2,IC50,[1],595 nM
same,IC50,[2],2000 nM
same,IC50,[3],3390 nM
same,IC50,[4],41 nM
"[H][C@@]12CCCN1C(=O)[C@H](Cc1cnc[nH]1)NC(=O)[C@H](CCCCN)NC(=O)[C@H](CC(N)=O)NC(=O)[C@H](CCCNC(=N)N)NC(=O)[C@]1([H])CSSC[C@H](NC(=O)CN)C(=O)N[C@@]([H])(CSSC[C@@H](C(N)=O)NC(=O)[C@H](CC(C)C)NC(=O)[C@H](CC(=O)O)NC2=O)C(=O)N[C@@H](CO)C(=O)N[C@@H](CC(=O)O)C(=O)N2CCC[C@@]2([H])C(=O)N2CCC[C@@]2([H])C(=O)N1 (HELM PEPTIDE1{G.C.C.S.D.P.P.C.R.N.K.H.P.D.L.C.[am]}$PEPTIDE1,PEPTIDE1,2:R3-8:R3|PEPTIDE1,PEPTIDE1,3:R3-16:R3$$$V2.0)",IC50,[5],28.4 nM
CC[C@H](C)[C@@H]1NC(=O)[C@@H]2CCCN2C(=O)[C@H](CO)NC(=O)[C@H](CCSC)NC(=O)[C@H](C)NC(=O)[C@H](CO)NC(=O)[C@@H]2CSSC[C@H](NC(=O)CN)C(=O)N[C@@H](CSSC[C@@H](C(N)=O)NC1=O)C(=O)N[C@@H](CO)C(=O)N[C@@H](Cc1cnc[nH]1)C(=O)N1CCC[C@H]1C(=O)N[C@@H](C(C)C)C(=O)N2,inhibition,[6],inactive
same,inhibition,[7],inactive
same,inhibition,[8],inactive
same,inhibition,[9],inactive
same,inhibition,[10],Active
"[H][C@@]12CCCN1C(=O)[C@]1([H])CCCN1C(=O)[C@]([H])([C@@H](C)O)NC(=O)[C@H](CO)NC(=O)[C@]1([H])CSSC[C@@H](C(N)=O)NC(=O)[C@H](Cc3ccc(O)cc3)NC(=O)[C@H](CC(C)C)NC(=O)[C@H](C(C)C)NC(=O)[C@H](C)NC(=O)[C@]([H])(CSSC[C@H](NC(=O)CN)C(=O)N1)NC2=O (HELM PEPTIDE1{G.C.C.S.T.P.P.C.A.V.L.Y.C.[am]}$PEPTIDE1,PEPTIDE1,2:R3-8:R3|PEPTIDE1,PEPTIDE1,3:R3-13:R3$$$V2.0)",IC50,[11],1.54 nM
same,IC50,[12],272 nM
same,IC50,[13],5.72 nM
same,IC50,[14],0.26 nM
same,IC50,[15],800 nM
same,IC50,[16],69.9 nM
same,IC50,[17],121 nM
same,IC50,[18],27.7 nM
"CC(C)C[C@@H]1NC(=O)[C@H](CCC(=O)O)NC(=O)[C@@H]2CCCN2C(=O)[C@H](Cc2cnc[nH]2)NC(=O)[C@H](CC(N)=O)NC(=O)[C@H](C(C)C)NC(=O)[C@H](CO)NC(=O)[C@@H]2CSSC[C@H](NC(=O)CN)C(=O)N[C@@H](CSSC[C@@H](C(N)=O)NC1=O)C(=O)N[C@@H](CO)C(=O)N[C@@H](Cc1cnc[nH]1)C(=O)N1CCC[C@H]1C(=O)N[C@@H](C)C(=O)N2 (HELM PEPTIDE1{G.C.C.S.H.P.A.C.S.V.N.H.P.E.L.C.[am]}$PEPTIDE1,PEPTIDE1,2:R3-8:R3|PEPTIDE1,PEPTIDE1,3:R3-16:R3$$$V2.0)",IC50,[19],6.9 nM
C[C@@H]1NC(=O)[C@H](Cc2ccccc2)NC(=O)[C@@H]2CSSC[C@@H](NC(=O)CN)C(=O)N[C@@H](CSSC[C@@H](C(N)=O)NC(=O)[C@H](CC(=O)O)NC(=O)[C@@H]3CCCN3C(=O)[C@H](CC(N)=O)NC(=O)[C@H]([C@@H](C)O)NC1=O)C(=O)N[C@@H](CO)C(=O)N[C@@H](Cc1ccc(O)cc1)C(=O)N1CCC[C@H]1C(=O)N1CCC[C@H]1C(=O)N2,IC50,[20],750 nM
NCC(=O)N[C@H]1CSSC[C@@H]2NC(=O)[C@H](CCCN=C(N)N)NC(=O)[C@@H]3CCCN3C(=O)[C@H](CC(=O)O)NC(=O)[C@H](CO)NC(=O)[C@H](CSSC[C@@H](C(=O)N[C@@H](CCCN=C(N)N)C(N)=O)NC(=O)[C@H](CCCN=C(N)N)NC(=O)[C@H](Cc3ccc(O)cc3)NC(=O)[C@H](CCCN=C(N)N)NC2=O)NC1=O,IC50,[21],4700 nM
same,IC50,[22],5.2 nM
"CC[C@H](C)[C@@H]1NC(=O)[C@H](Cc2cnc[nH]2)NC(=O)[C@@H]2CCCN2C(=O)[C@H](CC(N)=O)NC(=O)[C@H](CC(N)=O)NC(=O)[C@H](C(C)C)NC(=O)[C@H](CC(N)=O)NC(=O)[C@@H]2CSSC[C@H](NC(=O)CN)C(=O)N[C@@H](CSSC[C@@H](C(N)=O)NC1=O)C(=O)N[C@@H](CO)C(=O)N[C@@H](Cc1cnc[nH]1)C(=O)N1CCC[C@H]1C(=O)N[C@@H](C)C(=O)N2 (HELM PEPTIDE1{G.C.C.S.H.P.A.C.N.V.N.N.P.H.I.C.[am]}$PEPTIDE1,PEPTIDE1,2:R3-8:R3|PEPTIDE1,PEPTIDE1,3:R3-16:R3$$$V2.0)",IC50,[23],33 nM
same,IC50,[24],97 nM
same,IC50,[25],103 nM
same,inhibition,[26],22%
same,inhibition,[27],Active
same,inhibition,[28],Active
same,inhibition,[29],Active
